Test results as given in US8470776B2, “Conjugates of disorazoles and their derivatives with cell-binding molecules, novel disorazole derivatives, processes of manufacturing and uses thereof” (Aeterna Zentaris GmbH, priority 2006, dated 2013).
Values after ≈ are worked out from the molar mass of the structure shown. Values joined by “and” are separate entries in the source; they are usually repeats but may differ in a detail not shown here. Equal values may be shown once.

Experiments:
[1] = tested on: hGnRH-R negative cell line LTK−; assay: GnRH-receptor dependent proliferation assay, LTK-; type: cell-based; conditions: 30 min exposure, vital cells vs untreated control = 100%
Experimental: (§1) The dose-dependent receptor-mediated inhibition of cell proliferation of selected compounds of the invention was investigated.
(§2) To study these effects a human GnRH receptor (hGnRH-R) positive cell line (5C6; Beckers et al., Eur. J. Biochem. 1995, 231: 535-543) and an hGnRH-R negative cell line (LTK^−; ECACC No. 85011432) was used.
(§3) Respective cells were exposed to 1 mL culture medium in 24 well multi-titer-plates (MTPs) with a cell number of 15000 cells per well. The cell number is adjusted in such a way that after 5 days of testing the untreated control cells are still in the exponential growth phase.
(§4) Test compounds are given to the cultured cells after 4 hours of initial growth (adherence) in a volume of 100 μL to yield the final concentrations given in table 2.
(§5) After 30 min of incubation at 37° C. the entire culture medium is sucked off and the cells are washed twice with culture medium without test compounds. After the washing the cells are placed into an incubator (at 37° C., 5% CO2 and 95% atmospheric humidity) and incubated for further 4 days.
(§6) For the determination of the cell number after incubation the cells are detached using trypsin/EDTA and centrifuged. The number of vital cells and the total cell number are counted using a Vi-Cell Analyzer (Beckman Coulter).
(§7) The number of vital cells is analyzed in comparison with untreated control cells (=100%). Only cell groups (respective wells) are considered of which the total cell viability is more than 90%, i.e. inhibition of cell proliferation by unspecific toxicity can be excluded.
(§8) The proliferation status of untreated control cells after 96 hours is set to 100%.

[2] = tested on: human GnRH receptor (hGnRH-R) positive cell line 5C6; assay: GnRH-receptor dependent proliferation assay, 5C6; type: cell-based; conditions: 30 min exposure, vital cells vs untreated control = 100%
Experimental: as §1, §2, §3, §4, §5, §6, §7, §8

[3] = tested on: RKOp27 cells (human colon carcinoma cell line RKO), p27kip1 not induced; assay: cells; type: cell-based; conditions: without expression of p27kip1, XTT, 45 h
From the text: (§9) The cell lines used are the human cervical carcinoma cell line KB/HeLa (ATCC CCL17), the ovarian adenocarcinoma cell line SKOV-3 (ATCC HTB77), the human glioblastoma cell line SF-268 (NCI-503138) and the lung carcinoma cell line NCI-H460 (NCI-503473). In addition, for the investigation of the cell cycle-specific action of the compounds of the invention, an RKOp27 cell system was used (Schmidt M et al. Oncogene 2000, 19(20): 2423-2429). RKO is a human colon carcinoma cell line (ATCC CRL-2577), in which the cell cycle inhibitor p27^kip1 induced by means of the ecdysone expression system is expressed and can be led to a cell cycle arrest specifically in […]. A nonspecifically acting substance inhibits the proliferation independently of whether the RKO cell is or is not arrested in G1 or G2. Cell cycle-specific substances such as, for example, tubulin inhibitors are, however, only cytotoxic if cells are not arrested and the cell cycle is passed through.
(§10) The adherently growing tumor cell lines KB/HeLa, SKOV-3, SF-268 and NCI-H460 were cultured under standard conditions in an incubator at 37° C., 5% CO2 and 95% atmospheric humidity. On experimental day 1, the cells are detached using trypsin/EDTA and pelleted by centrifugation. Subsequently, the cell pellet is resuspended in the respective culture medium at the corresponding cell count and reacted in a 96-well microtiter plate. The plates are then cultured overnight in the incubator. The test substances are prepared as 1 mg/ml stock solutions in DMSO and diluted to the appropriate concentrations on experimental day 2 using culture medium. The substances in culture medium are then added to the cells and incubated in the incubator for 45 h. As a control, cells which are not treated with test substance are used. For the XTT assay, 1 mg/ml of XTT (sodium 3′-[1-(phenylaminocarbonyl)-3,4-tetrazolium]-bis(4-methoxy-6-nitro)benzenesulfonic acid) is dissolved in RPMI-1640 medium without Phenol Red. Additionally, a 0.383 mg/ml PMS (N-methyldibenzopyrazine methylsulfate) solution in phosphate-buffered saline solution (PBS) is prepared. On experimental day 4, 75 μl/well of XTT-PMS mixture is pipetted onto the cell plates which in the meantime have been incubated with the test substances for 45 h. For this, shortly before use, the XTT solution is mixed with the PMS solution in the ratio 50:1 (vol:vol). The cell plates are then incubated in the incubator for a further 3 h and the optical density (OD490 nm) is determined in a photometer. By means of the OD490 nm determined, the percentage inhibition is calculated relative to the control and plotted semilogarithmically in the form of a concentration-action curve. The IC50 is calculated by means of a regression analysis from the concentration-action curve using the program Graphpad Prism.
(§11) The assay is carried out in 96-well plates. […] By comparison of the activity on induced and noninduced cells, conclusions on the mechanism of action (cell cycle specificity) of the therapeutics can be drawn. […] cells are inoculated in approximately three-fold higher cell count, since division no longer takes place during the assay in comparison with uninduced cells (20000 cells/well induced, 6250 cells/well not induced). The controls are untreated cells (+/−induction). The induction is carried out with 3 μM muristerone A. On the 1st day, the cells are exposed (+/−muristerone A) and incubated at 37° C. for 24 h. On day 2, the test substance is added (control DMSO) and incubation is continued at 37° C. for a further 45 h before a standard XTT assay is carried out.

[4] = tested on: RKOp27 cells (human colon carcinoma cell line RKO), p27kip1 induced; assay: cells; type: cell-based; conditions: p27kip1 induced with 3 μM muristerone A, XTT, 45 h
From the text: as §9, §10, §11

[5] = tested on: human cervical carcinoma cell line KB/HeLa; assay: cells; type: cell-based; conditions: XTT, 45 h incubation
From the text: (§12) Selected compounds of the invention were investigated for their antiproliferative activity in a proliferation test on established tumor cell lines.
(§13) The test used determines the cellular dehydrogenase activity and makes possible a determination of the cell vitality and indirectly the cell count.
as §9, §10

[6] = tested on: human glioblastoma cell line SF-268; assay: cells; type: cell-based; conditions: XTT, 45 h incubation
From the text: as §12, §13, §9, §10

[7] = tested on: ovarian adenocarcinoma cell line SKOV-3; assay: cells; type: cell-based, human; conditions: XTT, 45 h incubation
From the text: as §12, §13, §9, §10

[8] = tested on: lung carcinoma cell line NCI-H460; assay: cells; type: cell-based, human; conditions: XTT, 45 h incubation
From the text: as §12, §13, §9, §10

C/C=C/C(OC(=O)CCCC(=O)NCCCC[C@H](NC(=O)[C@H](Cc1ccc(O)cc1)NC(=O)[C@H](CO)NC(=O)[C@H](Cc1c[nH]c2ccccc12)NC(=O)[C@H](Cc1cnc[nH]1)NC(=O)[C@@H]1CCC(=O)N1)C(=O)N[C@@H](CC(C)C)C(=O)N[C@@H](CCCNC(=N)N)C(=O)N1CCC[C@H]1C(=O)NCC(N)=O)C(C)(C(=O)OC)C1C\C=C/C=C/C=C/c2nc(co2)C(=O)OC(C(C)(C(=O)OC)C(/C=C/C)OC(=O)CCCC(=O)NCCCC[C@H](NC(=O)[C@H](Cc2ccc(O)cc2)NC(=O)[C@H](CO)NC(=O)[C@H](Cc2c[nH]c3ccccc23)NC(=O)[C@H](Cc2cnc[nH]2)NC(=O)[C@@H]2CCC(=O)N2)C(=O)N[C@@H](CC(C)C)C(=O)N[C@@H](CCCNC(=N)N)C(=O)N2CCC[C@H]2C(=O)NCC(N)=O)C\C=C/C=C/C=C/c2nc(co2)C(=O)O1 (stereo partly drawn) [compound 17, Disorazole Z Bis Hemi Glutaryl [D-Lys^6]LHRH]
proliferation status after 96 hours, cell line LTK−, 0.1 nM [1]: 100.9% | proliferation status after 96 hours, cell line LTK−, 1 nM [1]: 99.8% | proliferation status after 96 hours, cell line LTK−, 10 nM [1]: 98.8% | proliferation status after 96 hours, cell line LTK−, 100 nM [1]: 98.0% | proliferation status after 96 hours, cell line 5C6, 0.1 nM [2]: 95.5% | proliferation status after 96 hours, cell line 5C6, 1 nM [2]: 85.9% | proliferation status after 96 hours, cell line 5C6, 10 nM [2]: 58.5% | proliferation status after 96 hours, cell line 5C6, 100 nM [2]: 41.7% | IC50 RKOp27 [3]: >3.16 µg/mL | IC50 RKOp27 induced [4]: >3.16 µg/mL | IC50 KB/HELA [5]: >3.16 µg/mL | IC50 SF-268 [6]: >3.16 µg/mL | IC50 SKOV-3 [7]: >3.16 µg/mL | IC50 NCI-H460 [8]: >3.16 µg/mL

Disorazole E1 Mono Hemi Succinyl [D-Lys^6]LHRH, Both Regio-Isomers [compounds 13/14]
proliferation status after 96 hours, cell line LTK−, 0.1 nM [1]: 98.6% | proliferation status after 96 hours, cell line LTK−, 1 nM [1]: 98.8% | proliferation status after 96 hours, cell line LTK−, 10 nM [1]: 93.2% | proliferation status after 96 hours, cell line LTK−, 100 nM [1]: 27.0% | IC50 RKOp27 [3]: 0.01724 µg/mL | IC50 RKOp27 induced [4]: >3.16 µg/mL | IC50 KB/HELA [5]: 0.01891 µg/mL | IC50 SF-268 [6]: 0.05566 µg/mL | IC50 SKOV-3 [7]: 0.01685 µg/mL | IC50 NCI-H460 [8]: 0.0128 µg/mL

C/C=C/[C@H](OC(=O)CCC(=O)NCCCC[C@H](NC(=O)[C@H](Cc1ccc(O)cc1)NC(=O)[C@H](CO)NC(=O)[C@H](Cc1c[nH]c2ccccc12)NC(=O)[C@H](Cc1cnc[nH]1)NC(=O)[C@@H]1CCC(=O)N1)C(=O)N[C@@H](CC(C)C)C(=O)N[C@@H](CCCNC(=N)N)C(=O)N1CCC[C@H]1C(=O)NCC(N)=O)C(C)(C)[C@@H]1C\C=C/C=C\C=C\[C@H](OC)Cc2nc(co2)C(=O)O[C@H](C(C)(C)[C@H](/C=C/C)OC(=O)CCC(=O)NCCCC[C@H](NC(=O)[C@H](Cc2ccc(O)cc2)NC(=O)[C@H](CO)NC(=O)[C@H](Cc2c[nH]c3ccccc23)NC(=O)[C@H](Cc2cnc[nH]2)NC(=O)[C@@H]2CCC(=O)N2)C(=O)N[C@@H](CC(C)C)C(=O)N[C@@H](CCCNC(=N)N)C(=O)N2CCC[C@H]2C(=O)NCC(N)=O)C/C=C\[C@H]2O[C@H]2/C=C/C=C\c2nc(co2)C(=O)O1 [compound 15, Disorazole A1 Bis Hemi Succinyl [D-Lys^6]LHRH]
proliferation status after 96 hours, cell line LTK−, 0.1 nM [1]: 108.6% | proliferation status after 96 hours, cell line LTK−, 1 nM [1]: 111.3% | proliferation status after 96 hours, cell line LTK−, 10 nM [1]: 108.0% | proliferation status after 96 hours, cell line LTK−, 100 nM [1]: 101.7% | proliferation status after 96 hours, cell line 5C6, 0.1 nM [2]: 95.1% | proliferation status after 96 hours, cell line 5C6, 1 nM [2]: 98.6% | proliferation status after 96 hours, cell line 5C6, 10 nM [2]: 66.6% | proliferation status after 96 hours, cell line 5C6, 100 nM [2]: 43.0% | IC50 RKOp27 [3]: ca. 3.16 μg/ml | IC50 RKOp27 induced [4]: >3.16 µg/mL | IC50 KB/HELA [5]: >3.16 µg/mL | IC50 SF-268 [6]: >3.16 µg/mL | IC50 SKOV-3 [7]: >3.16 µg/mL | IC50 NCI-H460 [8]: >3.16 µg/mL

COc1cccc2c1C(=O)c1c(O)c3c(c(O)c1C2=O)C[C@@](O)(C(=O)CO)C[C@@H]3O[C@H]1C[C@H](N)[C@H](O)[C@H](C)O1 [doxorubicin, reference compound]
IC50 ([3]; Homo sapiens, RKOp27, read-out: IC50 RKOp27): 0.082 µg/mL (≈ 0.151 µM) | IC50 ([4]; Homo sapiens, RKOp27, read-out: IC50 RKOp27 induced): 0.124 µg/mL (≈ 0.228 µM) | IC50 ([5]; Homo sapiens, HeLa, read-out: IC50 KB/HELA): 0.32 µg/mL (≈ 0.589 µM) | IC50 ([6]; Homo sapiens, SF-268, read-out: IC50 SF-268): 0.305 µg/mL (≈ 0.561 µM) | IC50 ([7]; Homo sapiens, SK-OV-3, read-out: IC50 SKOV-3): 0.347 µg/mL (≈ 0.638 µM) | IC50 ([8]; Homo sapiens, NCI-H460, read-out: IC50 NCI-H460): 0.105 µg/mL (≈ 0.193 µM)

COc1cccc2c1C(=O)c1c(O)c3c(c(O)c1C2=O)C[C@@](O)(C(=O)COC(=O)CCCC(=O)NCCCC[C@@H](NC(=O)[C@H](Cc1ccc(O)cc1)NC(=O)[C@H](CO)NC(=O)[C@H](Cc1c[nH]c2ccccc12)NC(=O)[C@H](Cc1c[nH]cn1)NC(=O)[C@@H]1CCC(=O)N1)C(=O)N[C@@H](CC(C)C)C(=O)N[C@@H](CCCNC(=N)N)C(=O)N1CCC[C@H]1C(=O)NCC(N)=O)C[C@@H]3O[C@H]1C[C@H](N)[C@H](O)[C@H](C)O1 [AN-152, reference compound]
proliferation status after 96 hours, cell line LTK−, 100 nM [1]: 102.3% and 101.3% | proliferation status after 96 hours, cell line 5C6, 100 nM [2]: 43.9% and 42.1% | IC50 RKOp27 [3]: 0.587 µg/mL (≈ 0.31 µM) | IC50 RKOp27 induced [4]: 0.632 µg/mL (≈ 0.334 µM) | IC50 KB/HELA [5]: 0.871 µg/mL (≈ 0.46 µM) | IC50 SF-268 [6]: 1.258 µg/mL (≈ 0.665 µM) | IC50 SKOV-3 [7]: 1.238 µg/mL (≈ 0.654 µM) | IC50 NCI-H460 [8]: 0.558 µg/mL (≈ 0.295 µM)
